Patent publication US20040087498A1, “Modified factor VII” (Novo Nordisk Health Care AG, priority 1991, published 2004)
Values joined by “and” are separate entries in the source; they are usually repeats but may differ in a detail not shown here. Equal entries are not always repeated.

Key:
[1] = system: vascular lesion formation; assay: Balloon brachial artery model in baboons; format: in vivo; settings: baboon brachial artery balloon model, preliminary studies
Protocol: Under halothane anesthesia and sterile operating conditions, animals labeled with autologous ^111In-platelets received intravenous infusions of DEGR-FVIIa using the tether system for continuous intravenous administration (initial bolus injection of 1 mg/kg followed by continuous intravenous infusion of 50 μg/kg/hr. The animals received surgical carotid endarterectomy, bilateral brachial artery or bilateral femoral artery Fogarty balloon catheter angioplasties.
The DEGR-FVIIa was administered for 7 or 30 days by continuous infusions via venous catheter using the tether system. […]
For morphometric analysis of VLF, sections embedded in paraffin and stained for connective tissue components (collagen, elastin) and with hematoxylin-eosin, were evaluated using a Zeiss Photoscope coupled with image analysis system (Thomas Optical Measurement Systems, Columbus, Ga.) consisting of high resolution (580 lines) CCD microscope camera coupled to a high resolution (700 lines) monitor, an IBM 386 chip, 80 MB computer with high resolution graphics digitablet for image acquisition and storage. Quantitative image analysis was performed using a morphometric software driver (Optimas, Bioscan, Inc., Edmonds, Wash.). Arterial cross-sections were analyzed with respect to the total area of neointimal proliferative lesion and corresponding area of arterial media. […]

rabbit plasma = assay: Prothrombin time in plasma of balloon angioplasty rabbits; format: in vivo; settings: for Clotting Time (prothrombin time), individual animals: listed as DEGR-FVIIa
Protocol: (§1) The test drug delivery for the animals consisted of an initial bolus injection immediately prior to balloon angioplasty, followed by a continuous systemic infusion by osmotic pump via the internal jugular vein. The duration of the drug infusion was 3 days. The control animals received heparin, 150 U/kg IV bolus, prior to balloon angioplasty followed by saline infusion. The DEGR-FVIIa treated animals received a 1 mg/kg bolus injection followed by 50 μg/kg/hr infusion.
Prothrombin time and concentration of DEGR-FVIIa in the blood were determined at immediately pre-bolus injection of the test compound, 1 hr post bolus injection, and at 3 days at the end of continuous infusion. One to two mls of citrated plasma was obtained and the prothrombin times and antigen levels determined.
A standard clotting assay was used to monitor the prothrombin time in the control and DEGR-FVIIa-treated animals as follows. Twenty-five microliters of test rabbit plasma, collected with sodium citrate as anticoagulant, was added to 150 μl of TBS (20 mM Tris, pH 7.4, 150 mM NaCl). The samples were mixed and added to an Electra 800 Automated Coagulation Timer (Medical Laboratories Automation, Pleasantville, N.Y.). After incubation, 200 μl of thromboplastin preparation (Sigma Chemical) containing 25 mM CaCl2 was added to the plasma preparations. A concentration of thromboplastin that gave a clotting time of approximately 20 seconds in the control rabbit plasma was selected.

femoral artery lumen = assay: Angiographic luminal diameter after balloon angioplasty in atherosclerotic rabbits; format: in vivo, rabbit
Protocol: as §1
For the placement of the osmotic pumps for continuous systemic infusion, anesthesia was induced in the animals as described above, and maintained throughout the procedure with additional IM injections of ketamine and Xylazine. Through a midline neck incision, the right internal jugular vein was isolated by blunt dissection and the distal end ligated. A silastic tube (PE-160) was introduced into the right internal jugular vein. A subcutanecus tunnel was created to pass the silastic tube. This tube was connected with the osmotic pump. The osmotic pump was implanted subcutaneously in the back of the rabbit. The right common carotid artery was isolated by blunt dissection and the distal end ligated. Via an arteriotomy, a 5F introducer was placed and advanced to the junction of the aortic arch. Blood was drawn for determination of hemostatic parameters, drugs and cholesterol levels. Twenty milligrams of xylocain was injected intraarterially. A control aortoilibfemoral angiogram was performed via a 5F Berman catheter positioned above the aortic bifurcation using 3-4 ml renographin injected over 3 seconds by hand.
Following balloon dilatation, the angioplasty catheter was withdrawn and the Berman catheter reintroduced to a position 3 cm above the aortic bifurcation. To minimize spasm 20 mg of lidocaine was given intraarterially. A post procedure angiogram was performed as described above. A 1 cm grid was positioned at the level of the femoral artery to calculate the actual diameter. The catheter was then removed. The right carotid artery was ligated with 3-0 silk and the wound sutured by layers. […]

DEGR-Factor VIIa: Recombinant human Factor VIIa with its active site derivatized by Dansyl-L-Glu-Gly-Arg-chloromethyl Ketone (DEGRck)
benefit of therapy [1]: no measurable benefit | Plasma clotting time, Mean (rabbit plasma; 1 Hr POST ANGIO): 40.8 | Plasma clotting time, Mean (rabbit plasma; 3 Days POST ANGIO): 21.06 | Clotting Time (prothrombin time), individual animals (rabbit plasma; 1 hour after 1 mg/kg bolus, 50 μg/kg/hr infusion): 40.1 s and 34 s and 50 s and 33.3 s and 45.8 s and 41.6 s | Clotting Time (prothrombin time), individual animals (rabbit plasma; 3 days, end of 50 μg/kg/hr infusion): 18.3 s and 20.9 s and 21.7 s and 21 s and 21.2 s and 21.9 s and 22.4 s | Plasma clotting time, Mean (rabbit plasma; PRE-BLEED): 23.2 | Clotting Time (prothrombin time), individual animals (rabbit plasma; Pretreatment (pre-bolus)): 22.5 s and 24.3 s and 24.7 s and 23.6 s and 20.6 s and 23.5 s | Mean MLD (femoral artery lumen; 21 Day Measurement): 1.393 | Mean MLD (femoral artery lumen; Post-PTCA Measurement): 1.323 | Mean MLD (femoral artery lumen; Pre-PTCA Measurement): 1.283
